Experiments:
Format in all cases: biochemical, Amsacta moorei entomopoxvirus
AmEPV ligase [1] = molecular target: T1, AmEPV ligase (Betaentomopoxvirus amoorei, UniProt Q9EMK7); assay: Nucleotide cofactor specificity of AmEPV ligase in nick ligation
Procedure: Reaction mixtures (20 μl) containing 50 mM Tris-HCl (pH 7.5), 10 mM (NH4)2SO4, 5 mM DTT, 5 mM MgCl2, 1 pmol of ^32P-labeled nicked DNA, 32 ng of AmEPV ligase, and 50 μM of the indicated nucleotide were incubated for 30 min at 22° C. A control reaction contained no added nucleotide cofactor (none). The reaction products were resolved by polyacrylamide gel electrophoresis. An autoradiogram of the gel is shown.
A low level of nick ligation could be detected in the absence of added nucleotide (FIG. 6). Cofactor-independent ligation was attributed to pre-adenylated ligase in the enzyme preparation. […] Inclusion of NAD^+ in the reaction mixture stimulated nick ligation such that ˜90% of the input substrate molecules were sealed (FIG. 6). […] Indeed, none of the standard rNTPs or dNTPs were able to satisfy the requirement of AmEPV ligase for a high energy cofactor (FIG. 6). […] A Km of 9 μM NAD^+ was calculated from a double-reciprocal plot of the data.

AmEPV ligase [2] = molecular target: T1, AmEPV ligase; assay: Step 3 phosphodiester formation at a pre-adenylated nick by AmEPV ligase; conditions: 50 μM NAD+
Procedure: Truncated derivatives of AmEPV ligase deleted for motif Ia (NΔ70) or for the OB and HhH domains (CΔ216) were purified by Ni-agarose and phosphocellulose column cheomtography. FIG. 8A: Aliquots (3 μg) of full-sized AmEPV ligase (WT), NΔ70, and CΔ216 were analyzed by SDS-PAGE. A Coomassie blue-stained gel is shown. The positions and sizes (in kDa) of marker proteins are indicated on the left. FIG. 8B: Ligase adenylation reaction mixtures (20 μl) containing 50 mM Tris-HCl (pH 7.5), 5 mM DTT, 5 mM MgCl2, 1 μM [α-^32P]NAD^+ and 8 pmol of WT AmEPV ligase, NΔ70, or CΔ216 were incubated for 15 min at 22° C. The reaction products were resolved by SDS-PAGE and visualized by autoradiography. The positions and sizes (in kDa) of marker proteins are indicated on the right. FIG. 8C: Ligation of nicked DNA and nicked DNA-adenylate. Reaction mixtures (20 μl) containing 50 mM Tris-HCl (pH 7.5), 10 mM (NH4)2SO4, 5 mM DTT, 5 mM MgCl2, either 200 fmol of ^32P-labeled nicked DNA (pDNA) plus 50 μM NAD^+ or 200 fmol ^32P-labeled nicked DNA-adenylate (AppDNA) and no NAD^+, and 2 pmol of WT AmEPV ligase, NΔ70, or CΔ216 were incubated for 30 min at 22° C. The reaction products were resolved by denaturing PAGE. […]
FIG. 9A: Kinetic analysis of step 3. […] The mixtures were adjusted to 5% glycerol and then analyzed by electrophoresis through a 5% native polyacrylamide gel containing 90 mM Tris-borate, 2.5 mM EDTA. […]

AmEPV ligase [3] = molecular target: T1, AmEPV ligase; conditions: for support of ligase activity as divalent cation: 5 mM

In the case of `NC(=O)c1ccc[n+]([C@@H]2O[C@H](COP(=O)([O-])OP(=O)(O)OC[C@H]3O[C@@H](n4cnc5c(N)ncnc54)[C@H](OP(=O)(O)O)[C@@H]3O)[C@@H](O)[C@H]2O)c1` [NADP], the “stimulation of nick ligation as high energy cofactor” value (AmEPV ligase [1]; 50 μM nucleotide) is reported as “inactive”.
For `NC(=O)c1ccc[n+]([C@@H]2O[C@H](COP(=O)([O-])OP(=O)(O)OC[C@H]3O[C@@H](n4cnc5c(N)ncnc54)[C@H](O)[C@@H]3O)[C@@H](O)[C@H]2O)c1` [NAD^+], the “effect on step 3 catalysis by NΔ70” value (AmEPV ligase [2]; NΔ70) was “no effect whatsoever”, the “decrement in extent of step 3 ligation by wild-type ligase” value (AmEPV ligase [2]; wild-type AmEPV ligase) was 5 fold and the “input substrate molecules sealed with nucleotide included” value (AmEPV ligase [1]; 50 μM nucleotide) was about 90%. For the same compound, the “NAD+ concentration at which nick joining activity plateaued” value (AmEPV ligase [1]; sub-saturating enzyme) was 50 to 100 µM.
For `[Cu+2]` [cooper], the “support of ligase activity as divalent cation” value (“support of ligase activity” for short) (AmEPV ligase [3]) was “did not support ligase activity”.
In the case of `[Mg+2]` [magnesium], the “optimal divalent cation concentration for nick joining” value (AmEPV ligase [3]) is reported as 5 mM.
For `[Ca+2]` [calcium], the “support of ligase activity” value (AmEPV ligase [3]) was “did not support ligase activity”.
In the case of `Nc1ncnc2c1ncn2[C@@H]1O[C@H](COP(=O)(O)OP(=O)(O)OP(=O)(O)O)[C@@H](O)[C@H]1O` [ATP], the “stimulation of nick ligation as high energy cofactor” value (AmEPV ligase [1]; 50 μM nucleotide) is reported as “failed to stimulate”.
In the case of `[Mn+2]` [Manganese], the “support of ligase activity” value (AmEPV ligase [3]) is reported as “active, albeit less than magnesium”.
With `[Co+2]` [cobalt] the “support of ligase activity” value (AmEPV ligase [3]) was “active, albeit less than magnesium”.
`[Zn+2]` [zinc] was tested, and the “support of ligase activity” value (AmEPV ligase [3]) was “did not support ligase activity”.

— patent publication US6787341B2, “Pharmacological targeting of bacterial DNA ligase for treatment and prevention of bacterial infections” (priority 2001, dated 2004)
